Test results: PMC11039692, “SRY-Box transcription factor 9 triggers YAP nuclear entry via direct interaction in tumors” (Signal Transduction and Targeted Therapy, 2024)

Tests used:
[1] = tested on: YAP-SOX9 interaction; assay: Co-IP of SOX9-YAP interaction in cells; format: cell-based; conditions: V5-IP
Method: (§1) For protein preparation, cells were lysed in 2× sodium dodecyl sulfate (SDS) protein lysis buffer (4% SDS, 20% glycerol, 100 mM Tris-Cl [pH 6.8], with PMSF or other protease inhibitors). For co-immunoprecipitation (Co-IP), samples were prepared using Pierce^TM IP lysis buffer (Thermo Fisher Scientific, 87787) following the manufacturer's recommendations. Lysates were centrifuged at 12,000 rpm for 10 min, and the supernatants were collected. The protein concentration was determined using a BCA kit (Beyotime, P0010, Shanghai, China). For Co-IP samples, 1 mg of protein was precipitated with 20 μL of agarose-conjugated antibodies. For immunoblotting, protein samples were separated using SDS-polyacrylamide gel electrophoresis and then transferred onto nitrocellulose membranes (Millipore, HAHY00010).

[2] = tested on: Huh-7 xenograft; assay: Huh-7 subcutaneous xenograft model; format: in vivo, BALB/c nude mice
Method: (§2) Huh-7 cells (1×106) or Huh-7 cells infected with different viruses were injected subcutaneously into the right flank of male athymic BALB/c nude mice (5 weeks old). Tumor volumes were measured and analyzed using the equation: volume = π/6×length×(width)2.Once the average tumor volume reached approximately 60 mm3, the mice were randomly divided into five groups (eight mice per group) and treated with intratumorally injections of Pep-S-A1, Pep-D125A, or saline twice weekly. For the orthotopic HCC model, 1×10^6 Huh-7 cells expressing luciferase were injected subcutaneously into the right flank of BALB/c nude mice to establish tumor xenografts. The tumor nodules derived from xenograft model and then were divided into 1 mm3 pieces and subsequently implanted into the left lobe of the livers of 5-week-old male BALB/c nude mice to mimic primary HCC. The mice were randomly separated into two groups (eight animals per group) according to the bioluminescence 3 days after implantation. Pep-S-A1 or Pep-D125A was then injected via the tail vein every 5 days. The mice were regularly monitored using a luminal imaging system (Caliper) once each week and killed 2 weeks post tumor fragments transplanted.

[3] = tested on: Hep3B cells; assay: Proliferation of HCC cells; format: cell-based
[4] = tested on: luciferase-expressing Huh-7 tumors; assay: Orthotopic HCC model; format: in vivo, BALB/c nude mice; conditions: 2-week delivery
Method: as §2

[5] = tested on: YAP-TEAD; assay: 8×GTIIC YAP-TEAD luciferase reporter assay; format: cell-based
Method: Huh-7 cells were transfected with a vector expressing full-length or truncated SOX9 together with a TEAD4-related reporter plasmid, 8×GTIIC (RIKEN, Japan). The pRL-SV40 (Promega, E2261) vector was transfected into all the treated cells and was used to normalize the data. Luciferase reporter gene assays were assayed with the Dual-Luciferase Reporter Assay System (Promega, E2920). All experiments were replicated a minimum of three times.

[6] = tested on: SOX9^KO Huh-7 cells; assay: Proliferation of SOX9KO Huh-7 cells; format: cell-based; conditions: SOX9^KO Huh-7 cells treated with Pep-peptides
[7] = tested on: HCC cells; assay: Proliferation of Huh-7 / HCC cells; format: cell-based
[8] = tested on: YAP-SOX9 interaction; assay: PLA of SOX9-YAP interaction in cells; format: cell-based; conditions: HCC cells (DOX-induced Huh-7), peptides 10 μM, 24 h
Method: The pretreated cell samples were grown on coverslips, fixed in 4% paraformaldehyde (PFA) for 15 minutes, and then washed two times in PBS. Following a 1-hour incubation at 37 °C with blocking solution® (Sigma-Aldrich, DUO82007), the cells were incubated with primary antibodies at optimal concentrations overnight at 4 °C. After three washes in Buffer A® (Sigma-Aldrich, DUO82049), the samples were incubated with a 1:5 dilution of PLUS® and MINUS® Duolink In Situ PLA Probe (Sigma-Aldrich, DUO92002 and DUO92004) for 1 hour at 37 °C. Three additional washes in Buffer A® preceded a 30-minute incubation with 1 unit/μL of T4 DNA ligase diluted in ligase buffer (1:5, Sigma-Aldrich, DUO92013) at 37 °C. Subsequently, cells were washed three times again in Buffer A® and treated with 5 units/μL of DNA polymerase in diluted polymerase buffer (1:5, Sigma-Aldrich, DUO92013) for 100 min at 37 °C. Finally, cells were washed twice for 10 minutes each in 1× Buffer B® (Sigma-Aldrich, DUO82049), then quickly washed for 1 min in 0.01× Buffer B®. The slides were mounted using DUOlink in situ mounting medium containing DAPI, and the images were captured using a Leica TCS SP8 confocal microscope.

[9] = tested on: CTGF, CYR61 and AREG; assay: qPCR of YAP-target genes in cells; format: cell-based; conditions: Huh-7 cells, 10 μM
Method: (§3) Total RNA was isolated from cells or tissues with RNAiso Plus Reagent (TaKaRa, 9108). SuperScript Ⅲ reverse transcriptase (Invitrogen,18080093) was employed to synthesize first-strand cDNA. Real-time PCR was performed in an ABI Step One Real-time Detection System (Life Technologies) using SYBR Green (Takara, RR420A). The primer sequences are listed in supplementary Table 2.

[10] = target: T1, YAP (Homo sapiens, UniProt P46937); assay: YAP nuclear level / nuclear translocation in Huh-7 cells; format: cell-based; conditions: for nuclear transport of YAP: HCC cells (Huh-7), PRMT1 inhibitor MS023 200 nM or siPRMT1
T1 sequence (P46937 whole entry): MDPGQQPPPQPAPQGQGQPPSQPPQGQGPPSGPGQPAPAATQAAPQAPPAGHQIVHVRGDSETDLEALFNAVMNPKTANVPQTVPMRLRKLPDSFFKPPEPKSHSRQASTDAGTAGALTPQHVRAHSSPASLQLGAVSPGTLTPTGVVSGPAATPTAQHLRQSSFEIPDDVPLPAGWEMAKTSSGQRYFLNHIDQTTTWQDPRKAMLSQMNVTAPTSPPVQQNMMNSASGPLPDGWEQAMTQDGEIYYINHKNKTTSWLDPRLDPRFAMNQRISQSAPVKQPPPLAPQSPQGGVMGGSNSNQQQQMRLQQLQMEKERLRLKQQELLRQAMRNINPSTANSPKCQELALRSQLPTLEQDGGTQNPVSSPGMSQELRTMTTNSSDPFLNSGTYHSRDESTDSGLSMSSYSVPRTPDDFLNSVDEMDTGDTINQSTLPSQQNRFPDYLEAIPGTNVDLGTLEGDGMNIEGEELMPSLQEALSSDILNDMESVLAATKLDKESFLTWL
Method: Huh-7 cells were infected with lenti-YAP-linker-EGFP-rtTA3 followed by infection with lenti-SOX9-linker-mCherry-rtTA3, with selection using puromycin (Sigma-Aldrich, P9620) or Blasticidin S hydrochloride (Yeasen,60218ES10), and then plated on confocal 6-well plates (Biosharp, BS-15-GJM) at a suitable concentration. Approximately 1 h after doxycycline (DOX, Yeasen, 60204ES03) treatment, live cell images were captured every 30 min using an Olympus SpinSR10 microscope at ×200 magnification. For the PLA, the pretreated cell samples were fixed after DOX induction for 12 h. DOX was administered to the infected Huh-7 cells at a concentration of 1 μg/mL.
(§4) Cytoplasmic and nuclear fractionation was accessed by the Minute^TM Cytoplasmic and Nuclear Fractionation kit (Invent, SC-003) following the manufacturer’s recommendations with some modifications made by us to optimize the protocol. Cells were resuspended in pre-chilled cytoplasm extraction buffer and incubated on ice for 5 min. After a thorough one-minute vortex, the supernatant (cytoplasmic proteins) was obtained by centrifuging at 12,000 rpm for 5 min. To eliminate cytoplasmic proteins, the pellet was washed with pre-chilled PBS, and subsequently resuspended in a nuclear extraction buffer. The sample was vortexed thoroughly for 3 min in an ice bath, and these steps were repeated four times. The precipitate was discarded, and the supernatant (nuclear proteins) was saved for further analysis.

[11] = tested on: ovarian cancer; conditions: cited from earlier work
Text: (§5) The formation of YAP-partner complexes under certain pathological conditions makes YAP an ideal drug target.[44]–[46] […] In light of this, impeding ...

[12] = tested on: YAP-TEAD interaction; conditions: cited from earlier work
Text: as §5

[13] = tested on: Huh-7 cells; assay: TEAD activity and oncogenic properties of Huh-7 cells; format: cell-based; conditions: Huh-7 cells treated with Lenti-YAP and siPrmt1 simultaneously
[14] = tested on: YAP-R124me2a; assay: YAP-R124me2a level in cells (immunoblot); format: cell-based; conditions: Huh-7 cells co-transfected with V5-YAP and siPRMT1
Method: as §1

[15] = tested on: PLC cells; assay: YAP-induced gene expression and malignant features of PLC cells; format: cell-based; conditions: PLC cells infected with lenti-YAP; siRNA 20 nmol/L
Method: as §3

[16] = tested on: SOX9; assay: SOX9 nuclear level in Huh-7 cells; format: cell-based; conditions: CDZ 5 nM, 24 h
Method: as §4

[17] = target: T1, YAP; assay: MST binding to YAP protein; set-up: made in house; host or cells: Escherichia coli; conditions: 50 mM Tris-HCl pH 7.4, 150 mM NaCl, 0.05% Tween-20, effect of D125A mutation on S-A1 binding
Method: (§6) His-tagged YAP and the SOX9-HMG domain purified from Escherichia coli were labeled with 25 nM RED-tris-NTA 2nd Generation dye at room temperature for 10 min. Then, the labeled protein was incubated with a serially diluted peptide or protein for 10 min at room temperature. MST buffer containing 50 mM Tris-HCl [pH 7.4], 150 mM NaCl, and 0.05% Tween-20 was used in all measurements. The solution was centrifuged for 10 min at 4 °C and 15,000 g, and the supernatant was transferred to a fresh tube. The sample was loaded into the capillaries and measured at 40% LED/excitation power and medium MST power. The KD was determined in MO. Affinity Analysis using the KD fit.

[18] = target: T2, SOX9-HMG domain (Homo sapiens, UniProt P48436); assay: MST binding to SOX9-HMG domain; conditions: 50 mM Tris-HCl pH 7.4, 150 mM NaCl, 0.05% Tween-20, effect of R124K mutation on YAP peptide (aa 115–135)
T2 construct: made in house; host or cells: Escherichia coli
T2 sequence (P48436 98-181): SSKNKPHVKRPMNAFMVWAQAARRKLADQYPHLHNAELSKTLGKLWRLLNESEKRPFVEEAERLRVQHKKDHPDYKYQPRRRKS
Method: as §6

Pep-S-A1: S-A1 linked to a cell-penetrating peptide (Pep) via a di-glycine linker (HLYVSPWGGAFMVWAQAARRKLADQ)
disruption of YAP-SOX9 interaction (Co-IP) ([1]; HCC cells (Huh-7), peptides at indicated concentrations for 24 h): disrupted the YAP-SOX9 interaction in HCC cells in a dose-dependent manner
YAP nuclear staining in tumor tissues ([2]; Huh-7 xenograft, IHC, 8 mg/kg): reduced YAP nuclear staining
downstream gene transcription in tumor tissues ([2]; Huh-7 xenograft, qPCR of CTGF, CYR61 and AREG): reduced YAP nuclear staining and downstream gene transcription in the tumor tissues
tumor growth (Huh-7 subcutaneous xenograft) ([2]; nude mice, intratumoral injection, twice weekly (day 1 and day 4), eight mice per group): dose-dependently suppressed tumor growth
proliferation of Hep3B cells [3]: inhibited the proliferation of Hep3B cells
YAP nuclear aggregation in tumor tissues ([4]; orthotopic HCC, IHC, tail vein every 5 days): notably inhibited YAP nuclear aggregation
downstream gene expression in tumor tissues ([4]; orthotopic HCC, qPCR of CTGF, CYR61 and AREG): notably inhibited YAP nuclear aggregation and downstream gene expression in the tumor tissues
emitted bioluminescence ([4]; orthotopic HCC, tail vein every 5 days, compared with Pep-D125A, eight animals per group): significantly reduced the emitted bioluminescence
tumor growth (orthotopic HCC) ([4]; tail vein every 5 days, compared with Pep-D125A, eight animals per group): significantly reduced the emitted bioluminescence and tumor growth compared with Pep-D125A
YAP-TEAD activity ([5]; Huh-7 cells, 8×GTIIC reporter, 10 μM): suppressed YAP-TEAD activity
proliferation of SOX9KO Huh-7 cells [6]: had no effect on SOX9^KO Huh-7 cells
HCC cell proliferation [7]: inhibited HCC cell proliferation
disruption of YAP-SOX9 interaction (PLA) [8]: disrupted the YAP-SOX9 interaction in HCC cells in a dose-dependent manner
YAP-target gene expression [9]: inhibited YAP-target gene expression
nuclear YAP levels ([10]; Huh-7 cells, live cell-imaging): reduced nuclear YAP levels

verteporfin
ovarian cancer growth in mice [11]: suppressed ovarian cancer growth in mice
YAP-TEAD interaction [12]: blocked the YAP-TEAD interaction

siPRMT1: siRNA GAGUUCACACGCUGCCACAtt (guide GAGUUCACACGCUGCCACATT; chemistry not given here)
YAP-SOX9 interaction ([1]; Huh-7 cells co-transfected with V5-YAP and siPRMT1): reduced YAP-SOX9 interaction
YAP activity (8×GTIIC reporter) ([5]; Huh-7 cells transfected with siPRMT1): decreased YAP activity
TEAD activity and oncogenic properties triggered by YAP [13]: significantly reversed the elevated TEAD activity and oncogenic properties of Huh-7 cells triggered by YAP
nuclear transport of YAP ([10]; fractionation and immunoblot): remarkedly blocked the nuclear transport of YAP in HCC cells
YAP-R124me2a level [14]: decreased the YAP-R124me2a level

siSOX9: siRNA CCACCUUCACCUACAUGAAtt (guide CCACCUUCACCUACAUGAATT; chemistry not given here)
YAP-induced gene expression and malignant features [15]: notably attenuate the YAP-induced gene expression and malignant features of PLC cells

CC(C)Oc1ccc(-c2c[nH]cc2CN(C)CCN)cc1 [MS023]
nuclear transport of YAP ([10]; fractionation and immunoblot): remarkedly blocked the nuclear transport of YAP in HCC cells

Clc1ccc(C(c2ccc(Cl)cc2)n2cc[n+](CC(OCc3ccc(Cl)cc3Cl)c3ccc(Cl)cc3Cl)c2)cc1 (centres unmarked) [CDZ, calmidazolium chloride]
nuclear level of SOX9 [16]: decreased the nuclear level of SOX9
transactivation of the YAP-TEAD reporter ([5]; CDZ 5 nM, 24 h, Huh-7 cells overexpressing YAP or YAP^S127A, 8×GTIIC reporter): significantly inhibited nuclear translocation of YAP and the transactivation of the YAP-TEAD reporter
nuclear translocation of YAP ([10]; CDZ 5 nM, 24 h, Huh-7 cells transfected with V5-YAP, fractionation and immunoblot): significantly inhibited nuclear translocation of YAP

S-A1-D125A: S-A1 peptide with D125A mutation (AFMVWAQAARRKLAAQ)
binding to YAP (MST) [17]: abolished this binding

R124K: YAP peptide (aa 115–135) with R124K mutation (AGALTPQHVKAHSSPASLQLG; UniProt P46937 115-135, looked up, variant R124K)
binding to SOX9-HMG (MST) [18]: abolished
